Experimental data taken from patent publication US20140088034A1, “NITRIC OXIDE/cGMP PATHWAY INHIBITION OF VLA-4 RELATED CELL ADHESION” (STC.UNM, priority 2011, published 2014).
Read-outs that look alike come from different tables or passages of the source.

Legend:
VLA-4 [1] = molecular target: T1, VLA-4 (Homo sapiens, UniProt P05556+P13612); assay: Kinetic dissociation rate (koff) analysis of LDV-FITC probe on U937 cells with non-desensitizing FPR mutant; format: cell-based; details: U937 FPR ΔST, LDV-FITC 25 nM, LDV block 2 μM
Protocol: The experiment involved sequential addition of BAY 41-2272 (100 μM, guanylyl cyclase activator) or vehicle (control) at the 0 time point, and the fluorescent LDV-FITC probe (4 nM), and CXCL8/IL-8 (20 nM) (arrows). Excess unlabelled competitor LDV (1 μM) added at the end of the experiment to determine the non-specific binding of the probe. This experiment is analogous to the one shown in panel B. One representative experiment of two experiments is shown. Curves are means of two independent determinations calculated on a point-by-point basis (n=2). […] D, Kinetic analysis of binding and dissociation of LDV-FITC probe on U937 cells stably transfected with the non-desensitizing mutant of FPR. Cells were sequentially treated with the LDV-FITC probe (25 nM, near saturation), the Gαi-coupled receptor ligand (fMLFF, 100 nM), BAY 41-2272 (guanylyl cyclase activator, 50 μM) (arrows). At time points indicated by arrows, cells were treated with excess unlabeled LDV containing small molecule (2 μM), and the dissociation of the fluorescent molecule was followed. Dissociation rate constants (koff) were obtained by fitting dissociation curves to a single exponential decay equation (as described in the text). Experiments shown in the different panels were performed using different instruments, and therefore MCF values are not identical. E, Dissociation rate values, obtained in experiments analogous to panel B, summarized as a bar graph showing mean and SEM (n=4). Colors of the dissociation curves in panel D and bars on panel E are matching. The difference between koffs for “resting” and “fMLFF activated”, and between “fMLFF activated” and “fMLFF activated and treated with BAY 41-2272” is statistically significant (P=0.0006<0.05) as calculated by one-way analysis of variance (ANOVA) using GraphPad Prism software. […]
Next, the regions of the ligand-binding curves corresponding to the dissociation of the LDV-FITC probe were fitted to a single exponential decay equation. […] The affinity state induced by guanylyl cyclase activator was quantitatively similar to the resting state before activation. […]

VLA-4 [2] = molecular target: T1, VLA-4; assay: LDV-FITC equilibrium binding to VLA-4 (Kd and calculated receptor occupancy)
Source text: Previously, we described and characterized in detail a model ligand an LDV-FITC containing small molecule ([14, 42-44], and references therein) for the detection of VLA-4 conformational regulation. This VLA-4 specific fluorescent probe was based on a highly specific α4β1-integrin inhibitor BIO1211, which contains the Leu-Asp-Val (LDV) ligand binding motif from the alternatively spliced connecting segment-1 (CS-1) peptide of cellular fibronectin [17, 45]. We established that integrin affinity changes, detected using this probe, vary in parallel with the natural VLA-4 ligand, human VCAM-1 [46]. For real-time detection of rapid integrin conformational changes, cells were treated with LDV-FITC (FIG. 2, first arrow), which was added after establishing a baseline for unstained cells, indicated on FIG. 2A as “autofluorescence”. Next, data were acquired for 2-3 minutes, and cells were activated with fMLFF (high affinity FPR ligand), CXCL12/SDF-1 (CXCR4 ligand), or CXCL8/IL-8 (CXCR2 ligand), for FPR, CXCR4, CXCR2 transfected cells, respectively (FIGS. 2A, B, and C). […] The change in occupancy was detected as a rapid increase in the mean channel fluorescence (MCF). This signal increase was sustained for the case of a non-desensitizing mutant of FRP (FIG. 2A), and reversible for the wild-type receptors (CXCR4, and CXCR2, FIG. 2B,C). Next, cells were treated with the nitric oxide donor, or vehicle (control). Acquisition was re-established, and data were acquired continuously for up to 720-840 s. […] In the absence of receptor desensitization, the effect of nitric oxide was more evident in cells transfected with a non-desensitizing mutant of FPR (vehicle, FIG. 2A). However, the effect of the nitric oxide donor was statistically significant for both wild-type GPCRs. […] To emphasize statistically the difference between control and experimental samples, standard errors of mean are indicated using error bars for every experimental point in FIG. 2B, 2C, 2D, 2E.
Kinetic analysis of the binding and dissociation of the LDV-FITC probe was described previously. […]

VLA-4 [3] = molecular target: T1, VLA-4; details: cited from earlier work
[4] = 4 nM probe, calculated based on the one site binding equation

T1 sequence (P13612 34-1032): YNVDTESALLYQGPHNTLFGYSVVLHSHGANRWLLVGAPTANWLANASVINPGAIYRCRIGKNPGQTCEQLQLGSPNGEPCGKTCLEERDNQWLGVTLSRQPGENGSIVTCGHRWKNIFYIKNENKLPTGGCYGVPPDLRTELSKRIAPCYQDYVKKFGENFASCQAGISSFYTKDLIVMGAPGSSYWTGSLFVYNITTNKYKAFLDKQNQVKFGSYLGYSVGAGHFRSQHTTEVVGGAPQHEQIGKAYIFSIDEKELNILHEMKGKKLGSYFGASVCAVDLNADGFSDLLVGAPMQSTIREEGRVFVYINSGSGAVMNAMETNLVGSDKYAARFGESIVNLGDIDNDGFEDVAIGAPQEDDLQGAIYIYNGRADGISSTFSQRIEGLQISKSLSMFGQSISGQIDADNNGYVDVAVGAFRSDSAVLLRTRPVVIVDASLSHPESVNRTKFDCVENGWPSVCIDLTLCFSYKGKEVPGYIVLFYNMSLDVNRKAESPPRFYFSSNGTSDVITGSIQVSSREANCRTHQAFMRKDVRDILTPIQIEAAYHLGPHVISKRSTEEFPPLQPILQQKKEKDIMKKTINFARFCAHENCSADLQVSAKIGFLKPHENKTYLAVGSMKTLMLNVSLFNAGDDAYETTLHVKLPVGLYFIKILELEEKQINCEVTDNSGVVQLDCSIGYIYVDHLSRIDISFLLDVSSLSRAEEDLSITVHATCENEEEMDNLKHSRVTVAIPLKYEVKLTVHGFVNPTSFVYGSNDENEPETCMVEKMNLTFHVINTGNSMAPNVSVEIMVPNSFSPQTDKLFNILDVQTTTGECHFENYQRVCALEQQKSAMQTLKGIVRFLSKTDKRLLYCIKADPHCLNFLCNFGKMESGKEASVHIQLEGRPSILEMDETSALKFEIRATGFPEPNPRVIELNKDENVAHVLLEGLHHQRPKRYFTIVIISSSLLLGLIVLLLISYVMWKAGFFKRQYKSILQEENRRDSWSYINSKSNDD
T1 sequence (P05556 21-798): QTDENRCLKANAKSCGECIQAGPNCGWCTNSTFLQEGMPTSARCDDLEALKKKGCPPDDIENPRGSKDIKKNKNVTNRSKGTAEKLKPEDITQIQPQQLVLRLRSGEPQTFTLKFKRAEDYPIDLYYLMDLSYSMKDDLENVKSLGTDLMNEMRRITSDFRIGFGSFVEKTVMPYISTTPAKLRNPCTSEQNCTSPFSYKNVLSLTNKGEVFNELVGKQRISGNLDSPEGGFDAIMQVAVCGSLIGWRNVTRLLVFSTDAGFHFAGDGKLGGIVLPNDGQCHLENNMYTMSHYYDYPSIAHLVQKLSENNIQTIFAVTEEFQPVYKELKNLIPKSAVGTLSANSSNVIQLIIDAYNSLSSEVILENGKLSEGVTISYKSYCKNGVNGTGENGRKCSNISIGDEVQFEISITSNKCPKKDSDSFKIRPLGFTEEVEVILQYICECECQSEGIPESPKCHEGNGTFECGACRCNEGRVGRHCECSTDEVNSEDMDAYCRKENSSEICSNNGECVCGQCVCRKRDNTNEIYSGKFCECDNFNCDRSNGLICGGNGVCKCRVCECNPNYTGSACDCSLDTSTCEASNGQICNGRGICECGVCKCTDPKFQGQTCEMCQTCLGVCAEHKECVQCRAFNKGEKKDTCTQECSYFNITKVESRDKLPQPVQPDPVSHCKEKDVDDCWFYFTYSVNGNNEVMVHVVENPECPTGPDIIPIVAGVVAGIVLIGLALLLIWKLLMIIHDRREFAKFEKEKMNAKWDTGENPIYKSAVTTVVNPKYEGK

With “4-((N′-2-methylphenyl)ureido)-phenylacetyl-L-leucyl-L-aspartyl-L-valyl-L-prolyl-L-alanyl-L-alanyl-L-lysine-FITC [LDV-FITC]” the “dissociation rate constant koff of LDV-FITC, resting cells” value (VLA-4 [1]; at rest) was roughly 0.04 ± 0.001 s⁻¹, the “dissociation rate constant koff of LDV-FITC after cell activation by fMLFF” value (VLA-4 [1]; fMLFF 100 nM) was roughly 0.018 ± 0.0001 s⁻¹ and the “receptor occupancy, high affinity state” value (VLA-4 [2]; [4]) was 70-80%. For the same substance, the “receptor occupancy, low affinity state” value (VLA-4 [2]; [4]) was roughly 25%, the “sites occupied before activation” value (VLA-4 [2]; 25 nM probe, low affinity state) was roughly 70% and the Kd (VLA-4 [3]; physiologically activated VLA-4, high affinity state, read-out: Kd for physiologically activated VLA-4 (high affinity state)) was 1 to 2 nM. For the same substance, the Kd (VLA-4 [3]; resting VLA-4, low affinity state, read-out: Kd for binding to resting VLA-4 (low affinity state)) was roughly 12 nM.
